Measurements from patent US5641793A, “Pyridine compounds which have useful pharmaceutical activity” (Zeneca Limited, priority 1994, dated 1997).

Columns and labels:
[1] = system: Human ETA or ETB receptors; assay: Test A: inhibition of [125I]-Endothelin-1 binding to MEL cell membranes expressing recombinant receptor; conditions: inhibition of 30 pM [125I]-Endothelin-1 binding; receptor sub-type (ETA or ETB) not given
Excerpt: The endothelin receptor antagonist activity of compounds of formula I may be assessed in vitro by their ability to inhibit binding of [^125 I]-Endothelin-1 to its receptors. Human ETA or ETB receptors (sub-types of the endothelin receptor) were expressed in Mouse Erythroleukemic Cells (MEL cells) by using standard molecular techniques (for example, as described by Sambrook J., Fritsch E. F. & Maniatis T. (1989) Molecular Cloning: A Laboratory Manual, 2nd Edition, Cold Spring Harbor Press, U.S.A.). cDNA sequences encoding the human ETA and ETB receptor (Hosoda K. et al (1991), FEBS Lett., 287, 23-26 and Sakamoto A. et al, (1991), Biochem. Biophys Res. Comm., 178, 656-663) are subcloned into pBluescript vector followed by insertion into the MEL cell expression vector pEV as described by Needham et al (1992), Nuc. Acids Res., 20, 997-1003. […]
[^125 I]-Endothelin-1 binding to MEL cell membranes was measured in incubation buffer containing 50 mM Tris HCl, 1 mM CaCl2, 0.05% polyoxyethylenesorbitan monolaurate, 0.1% Bovine Serum Albumin (BSA), 0.02% sodium azide pH 7.4 at 30° C. after 180 minutes incubation. […] Nonspecific binding was measured in the presence of 100 nM unlabelled Endothelin-1. […] The filter discs were punched out and counted in a gamma counter. Compounds are tested in triplicate over a range of concentrations and IC50 (or pIC50) values calculated.

endothelin receptor = assay: Test B: inhibition of the relaxant response to endothelin-1 in guinea-pig isolated taenia coli; conditions: antagonism of endothelin-1 relaxation, initial test concentration 20 μM
Procedure: The endothelin receptor antagonist activity of compounds of formula I may be assessed in vitro in isolated tissues by their ability to inhibit the relaxant response to endothelin-1 in the guinea-pig isolated taenia coli. Guinea pigs of either sex and weight >250 g are killed by cervical dislocation and the caecum removed and placed in cold oxygenated Krebs solution. Strips of taenia coli are dissected out and approximately 4 cm lengths set up for isotonic recording in a 20 ml organ bath containing oxygenated Krebs solution at 32° C. After a […] equilibration period to allow the tissue to spontaneously develop an increased tone, a cumulative concentration-response curve (relaxation) is constructed to endothelin-1 (0.3-10 nM). The tissue is then washed for a period of at least 90 minutes before construction of a second concentration-response curve to endothelin-1 in the presence of the test compound. The test compound is added to the organ bath (at an initial concentration of 20 μM) at least 30 minutes before constructing the second concentration-response curve to endothelin-1. The endothelin-1 concentration ratio for each experiment is determined by comparing the most parallel portions of the control and drug treated concentration-response curves. From this a pA2 is calculated: pA2 =-log[molar drug concentration]+log[concentration ratio-1].

**Q.** With Cc1cc(Br)cnc1NS(=O)(=O)c1cccc2c(N(C)C)cccc12 [Example 6, 5-(dimethylamino)-N-(5-bromo-3-methyl-2-pyridyl)-1-naphthalenesulphonamide] as the molecule, how does the “pIC50 in test A” value [1] read?
**A.** 6.5

**Q.** And the “pA2 in test B” value (endothelin receptor)?
**A.** 6.6
